From PubChem BioAssay AID179 (DTP/NCI, 2004)
Several values for one entry are separate records, joined by “and”; a condition that tells them apart may be missing. Identical values can stand only once. Activity calls are given as the source filed them.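 Rule for the calls: active = compounds giving half or more protection of infected cells from virus-caused growth loss, again on retest; inactive = the rest.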 Where a SMILES comes first, the peptide text is derived from it.

Tested on: CEM cells HIV-1 protection, formazan growth assay
Test: NCI AIDS Antiviral Assay
Conditions: for IC50: measured here: growth of uninfected CEM cells
Procedure, shortened: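 Protection of CEM cells against HIV-1 was scored from cell growth (soluble formazan) across five concentrations, with parallel uninfected cells. Lack of protection may reflect toxicity.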

Compound	EC50 [µM]	IC50	outcome
CN1CCC(O)(c2ccc(F)cc2)C(C(=O)c2ccc(F)cc2)C1 (stereo unspecified)	> 200	72.4 µM	–
Cc1[nH]n(-c2nc(-c3ccccc3)cc(=O)[nH]2)c(=O)c1CCO	> 200	> 200 µM	–
CN(C)CCNC(=O)C1COc2cc(-c3cc(=O)c4ccccc4o3)ccc2O1 (stereo unspecified)	–	–	inactive
COc1cccc2c1C(=O)c1c(O)c3c(c(O)c1C2=O)C[C@@](O)(C(C)=O)C[C@@H]3OC1CC(O)C(O)C(C)O1 (stereo partly specified)	> 0.2	0.0107 µM	–
O=C(CC(=O)N1N=C(N2c3ccccc3Sc3ccccc32)CC1c1ccccc1)Nc1ccccc1Cl (stereo unspecified)	> 200	> 200 µM	–
CC1S/C(=N\N=C\c2ccc(Cl)cc2)N=C1c1c(O)c2ccccc2oc1=O (stereo unspecified)	> 200	36.3 µM	–
CCOC(=O)N1N=C(c2ccccc2)OC2(N3CCCC3)CCC(C(C)(C)C)CC12 (stereo unspecified)	44.7	105 µM	–
C=CCNC(=O)CN(CC(=O)OC)C1CCCCC1N(CC(=O)OC)CC(=O)OC (stereo unspecified)	> 200	> 200 µM	–
CC[C@@]1(O)C(=O)OCc2c1cc1n(c2=O)Cc2cc3cc(O)ccc3nc2-1	> 37.2	0.00832 µM	–
CCN(CC)C(C)C(=O)Nc1cccc(Cl)c1C (stereo unspecified)	> 50.1	> 50.1 µM	–
C[N+](C)(C)CC(=O)N/N=C(\Cc1nc2ccc([N+](=O)[O-])cc2[nH]c1=O)C(=O)Nc1nc2ccc([N+](=O)[O-])cc2s1	> 42.7	> 42.7 µM	–
CC1(O)CC2C(CC1SCCO)C2(C)C (stereo unspecified)	> 1070	631 µM	–
COC(=O)CCN1c2ccccc2Sc2ccccc21	> 66.1	> 66.1 µM	–
Cc1c(Cl)cccc1NC(=O)CC1Sc2ccccc2NC1=O (stereo unspecified)	> 27.5	> 27.5 µM and 15.5 µM	–
O=C(Cc1ccccc1)N[C@@H]1COC(=O)[C@@H]2CCCN2C(=O)[C@@H]2CCCN2C1=O (HELM PEPTIDE1{[O=C(Cc1ccccc1)[*:2]].[O=C([C@@H](CO[*:3])N[*:1])[*:2]].P.P}$PEPTIDE1,PEPTIDE1,2:R3-4:R2$$$V2.0)	> 200	> 200 µM	–
CCOC(=O)C(O)(NC(=O)Nc1ccc(F)cc1)C(F)(F)F (stereo unspecified)	> 200	> 200 µM	–
COC(=O)c1ccc(NCC2=CC(=O)C=CC2=O)cc1O	> 200	4.47 µM	–
O=C(Cc1ccccc1)N/N=C(\C1=Nc2ccc([N+](=O)[O-])cc2NC1O)C(O)c1ccc([N+](=O)[O-])cc1 (stereo unspecified)	> 51.3	47.9 µM	–
COc1c(O)c(O)cc2c1-c1ccc(OC)c(=O)cc1C(NC(C)=O)CC2 (stereo unspecified)	> 200	1.05 µM	–
Cc1nnc2c([N+](=O)[O-])c(N)c(Cl)nn12	> 200	1.29 µM	–
O=C1CCCC/C1=C\c1ccc([N+](=O)[O-])cc1	> 200	6.03 µM	–
N#Cc1c(-c2ccco2)cc(-c2ccccc2)[nH]c1=O	> 20	> 20 µM	–
CCOP(=O)(OCC)c1ccc(=O)[nH]c1-c1cccs1	> 200	> 200 µM	–
O=C(O)c1c(O)c2cc(Cl)ccc2oc1=O	> 200	158 µM	–
COC(=O)CCN(CCC(=O)OC)C1CC1	> 200	> 200 µM	–
Cc1cccc(N2C(=O)C3c4[nH]c5ccc(C)cc5c4C4CCC(C(C)(C)C)CC4C3C2=O)c1 (stereo unspecified)	> 200	8.51 µM	–
COC(=O)C(C(=O)C(=O)Nc1ccc(N)cc1[N+](=O)[O-])c1nc2ccc(Cl)cc2[nH]c1=O (stereo unspecified)	> 40.7	30.9 µM	–
CC(=O)c1cc2c3c(c1)c1cc4c(cc1c(=O)n3CC2)OCO4	–	–	inactive
NC1=NC(N)=N1	> 2950	> 2950 µM	–
